In brackets after ≈: the same amount, converted by molar mass. Activity calls are given as the source filed them. The calls are words filed in the database; no cut-off is given here.

The target of data set [1] is T1, Sodium-dependent phosphate transport protein 2B (Homo sapiens, UniProt O95436).
T1 sequence (O95436 whole entry): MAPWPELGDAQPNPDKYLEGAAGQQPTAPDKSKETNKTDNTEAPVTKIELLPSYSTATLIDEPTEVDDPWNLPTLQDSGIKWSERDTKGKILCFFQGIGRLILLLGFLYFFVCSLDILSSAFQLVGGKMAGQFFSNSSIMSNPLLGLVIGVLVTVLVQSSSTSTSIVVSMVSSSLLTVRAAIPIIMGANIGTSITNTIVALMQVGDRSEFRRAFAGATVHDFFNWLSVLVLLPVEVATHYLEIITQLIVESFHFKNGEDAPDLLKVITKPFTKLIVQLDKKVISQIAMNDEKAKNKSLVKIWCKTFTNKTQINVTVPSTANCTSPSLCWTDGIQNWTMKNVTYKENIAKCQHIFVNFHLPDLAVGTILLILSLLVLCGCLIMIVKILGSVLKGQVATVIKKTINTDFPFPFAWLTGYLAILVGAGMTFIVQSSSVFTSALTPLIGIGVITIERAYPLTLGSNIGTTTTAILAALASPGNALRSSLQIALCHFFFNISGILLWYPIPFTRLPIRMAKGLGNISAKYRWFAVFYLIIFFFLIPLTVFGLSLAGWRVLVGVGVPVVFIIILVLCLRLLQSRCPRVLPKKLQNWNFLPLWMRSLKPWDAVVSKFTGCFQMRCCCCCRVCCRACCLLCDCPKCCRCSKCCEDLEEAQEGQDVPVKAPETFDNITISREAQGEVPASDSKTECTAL
Kind of data set: Inhibition of human NaPi2b expressed in CHO-K1 cells assessed as reduction in [33P] uptake preincubated with compound for 30 mins followed by [33P]O4 addition and measured after 30 mins by TopCount liquid scintillation counting method. It counts as cell-based.

For data set [2], the target named is T2, Sodium-dependent phosphate transport protein 2B (Homo sapiens) (UniProt O95436).
T2 sequence (whole entry): T1 sequence (O95436 whole entry)
Nature of the data set: Inhibition of human NaPi2b at 1 uM relative to control.

The target in data set [3] is T1, Sodium-dependent phosphate transport protein 2B. Kind of data set: Inhibition of NaPi2b (unknown origin).
Data set [4] is described as follows: Solubility of the compound in fed state simulated intestinal fluid at pH 5.0 incubated for 24 hrs by HPLC analysis. It counts as physicochemical.
Data set [5] can be described thus: Solubility of the compound in fasted state simulated intestinal fluid at pH 6.5 incubated for 24 hrs by HPLC analysis. It counts as physicochemical.
Data set [6] in a line: Drug concentration in Sprague-Dawley rat intestine at 10 mg/kg, po administered as single dose. Format: ADME, organism-based. Conditions: in vivo.
A short description of data set [7]: Oral bioavailability in Sprague-Dawley rat at 10 mg/kg administered as single dose by LC-MS analysis. Format: ADME, organism-based. The conditions noted are these: in vivo.
In data set [8] the target is T3, Sodium-dependent phosphate transport protein 2B (Rattus norvegicus, UniProt Q9JJ09).
T3 sequence (Q9JJ09 whole entry): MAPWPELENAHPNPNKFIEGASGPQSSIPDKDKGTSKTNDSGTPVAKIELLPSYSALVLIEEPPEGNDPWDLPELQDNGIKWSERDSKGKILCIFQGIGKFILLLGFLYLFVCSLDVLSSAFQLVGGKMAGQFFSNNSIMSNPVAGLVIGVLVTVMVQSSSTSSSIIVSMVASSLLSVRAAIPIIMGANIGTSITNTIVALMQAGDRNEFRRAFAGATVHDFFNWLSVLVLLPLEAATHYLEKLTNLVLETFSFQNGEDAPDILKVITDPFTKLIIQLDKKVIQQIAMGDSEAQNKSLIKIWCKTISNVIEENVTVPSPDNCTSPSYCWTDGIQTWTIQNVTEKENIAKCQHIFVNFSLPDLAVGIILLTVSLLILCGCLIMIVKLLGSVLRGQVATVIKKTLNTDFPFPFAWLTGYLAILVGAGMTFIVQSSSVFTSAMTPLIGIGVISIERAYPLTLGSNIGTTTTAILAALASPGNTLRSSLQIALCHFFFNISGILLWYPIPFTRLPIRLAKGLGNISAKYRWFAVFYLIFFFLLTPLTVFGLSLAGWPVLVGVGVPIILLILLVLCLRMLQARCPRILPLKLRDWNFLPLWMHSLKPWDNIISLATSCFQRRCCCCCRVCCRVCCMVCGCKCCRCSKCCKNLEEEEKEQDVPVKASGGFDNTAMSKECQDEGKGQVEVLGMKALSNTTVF
Kind of data set: Inhibition of rat NaPi2b expressed in CHO-K1 cells assessed as reduction in [33P] uptake preincubated with compound for 30 mins followed by [33P]O4 addition and measured after 10 mins by TopCount liquid scintillation counting method. Format: cell-based.

A short description of data set [9]: AUC (0 to t) in Sprague-Dawley rat at 10 mg/kg, po administered as single dose by LC-MS analysis. Format: ADME, organism-based. Also noted: dose 10 mg/kg, route po. The conditions noted are these: in vivo.
The nature of data set [10]: Drug excretion in Sprague-Dawley rat feces assessed as cumulative amount of unchanged drug excreted at 10 mg/kg, po administered as single dose and measured within 24 hrs by LC-MS analysis. Format: ADME, organism-based. Conditions: faeces, read-out: Ae.
Data set [11] can be described thus: Cmax in Sprague-Dawley rat at 10 mg/kg, po administered as single dose by LC-MS analysis. It counts as ADME, organism-based. The arrangement: dose 10 mg/kg, route po. The conditions noted are these: in vivo.
The nature of data set [12]: AUC (0 to t) in Sprague-Dawley rat at 1 mg/kg, iv administered as single dose by LC-MS analysis. It counts as ADME, organism-based. Also noted: dose 1 mg/kg, route iv. The conditions noted are these: in vivo.
Another data set deals with Rattus norvegicus. Kind of data set: In vivo inhibition of NaPi2b in Sprague-Dawley rat assessed as reduction in phosphate absorption at 10 mg/kg, po preincubated for 5 mins followed by addition of NaH2PO4 containing 32P-phosphate solution and measured after 15 to 30 mins by liquid scintillation counting method. Conditions: time 20.0 min. It counts as functional, organism-based.

A short description of data set [13]: AUC (0 to t) in Sprague-Dawley rat at 1.17 mg/kg, iv administered as single dose by LC-MS analysis. The conditions noted are these: in vivo. The arrangement: dose 1.17 mg/kg, route iv. It counts as ADME, organism-based.

For `CCCC(CCC)N(CCN(C)C(=O)CCC(=O)O)Cc1cccc(C(=O)Nc2[nH]c3ccccc3c2C(=O)Nc2ccc(CCCc3ccc(C(=O)O)cc3)cc2)c1`, in data set [1], the IC50 came out at 78 nM.
For the compound `CCC(CC)N(CCN(C)C(=O)CCC(=O)O)Cc1cccc(C(=O)Nc2sc3c(c2C(=O)Nc2ccc(CCc4ccc(C(=O)O)cc4)cc2)CCCC3)c1`, the inhibition in [2] came out at 87%.
Consider `CN(C(=O)CCC(=O)O)C1CCN(Cc2cccc(C(=O)Nc3[nH]c4ccccc4c3C(=O)Nc3ccc(CCCc4ccc(C(=O)O)cc4)cc3)c2)C1` (stereo not given), for which, in data set [1], the IC50 worked out at 1020 nM.
Same read-out and setting: for `CCN([C@H]1CC[C@H](C(=O)O)CC1)S(=O)(=O)c1cccc(C(=O)Nc2[nH]c3ccccc3c2C(=O)Nc2ccc(CCCc3ccc(C(=O)O)cc3)cc2)c1` the value was 257 nM.
Take `CCC(CC)N(CCN(C)C(=O)CCC(=O)O)Cc1cccc(C(=O)Nc2[nH]c3ccccc3c2C(=O)Nc2ccc(Cc3ccc(C(=O)O)cc3)cc2)c1`: in [1], the IC50 came out at 448 nM.
Same read-out and setting: for `CC(C)N(CCN(C)C(=O)CCC(=O)O)Cc1cccc(C(=O)Nc2[nH]c3ccccc3c2C(=O)Nc2ccc(CCCc3ccc(C(=O)O)cc3)cc2)c1` the value was 356 nM.
As to `CCC(CC)N(CCN(C)C(=O)CCC(=O)NCCOCCOCCOCCC(=O)O)Cc1cccc(C(=O)Nc2[nH]c3ccccc3c2C(=O)Nc2ccc(CCCc3ccc(C(=O)O)cc3)cc2)c1`, the IC50 in data set [1] was 535 nM.
On the same count and under the same terms, for `CN(Cc1cccc(C(=O)Nc2[nH]c3ccccc3c2C(=O)Nc2ccc(CCCc3ccc(C(=O)O)cc3)cc2)c1)C1CCN(C(=O)CCC(=O)O)C1` (stereo not given) the value was 2580 nM; for `CCC(CC)N(CCN(C)C(=O)CNS(=O)(=O)c1c[nH]c(C(N)=O)c1)Cc1cccc(C(=O)Nc2[nH]c3ccccc3c2C(=O)Nc2ccc(CCCc3ccc(C(=O)O)cc3)cc2)c1`, 401 nM; for `CCC(CC)N(CCN(C)C(=O)CN1C(=O)NC2NC(=O)NC21)Cc1cccc(C(=O)Nc2[nH]c3ccccc3c2C(=O)Nc2ccc(CCCc3ccc(C(=O)O)cc3)cc2)c1` (stereo not given), 401 nM.
`CCC(CC)N(CCN(C)C(=O)NCC(=O)O)Cc1cccc(C(=O)Nc2[nH]c3ccccc3c2C(=O)Nc2ccc(CCCc3ccc(C(=O)O)cc3)cc2)c1`: the IC50 in data set [1] turned out to be 369 nM.
For `CCN(CC)c1ccc(NC(=O)c2cccc(CSCCOCCOCCOCCOCCOCCOCCOCCOCCC(=O)O)c2)c(-c2cc(C(=O)NCc3cccc(C(F)(F)F)c3)ccn2)c1`, the IC50 in data set [3] is 1000 nM.
Turning to `CCC(CC)N(CCN(C)C(=O)CCC(=O)O)Cc1cccc(C(=O)Nc2[nH]c3ccccc3c2C(=O)Nc2ccccc2)c1`, the IC50 in data set [1] stood at 538 nM.
On the same count and under the same terms, for `CCC(CC)N(CCN(C)S(=O)(=O)NC(=O)OCC(=O)O)Cc1cccc(C(=O)Nc2[nH]c3ccccc3c2C(=O)Nc2ccc(CCCc3ccc(C(=O)O)cc3)cc2)c1` the value was 267 nM.
As for `CCC(CC)N(CCN(C)C(=O)CCC(=O)O)Cc1cccc(C(=O)Nc2[nH]c3ccccc3c2C(=O)Nc2ccc(CCCc3ccc(C(=O)O)cc3)cc2)c1`, the solubility at 24 h in data set [4] was 264 µg/mL (≈ 341 µM); in data set [5] it was 103 µg/mL (≈ 133 µM). The compound also displayed a Ct in data set [6] of 39 µg/mL. Moreover, the bioavailability in data set [7] was determined as 13.1%. Moreover, the IC50 in [8] is 28 nM; in [1], 71 nM. The AUC(0-t) was found to be 1090 ng·h/mL in data set [9] and 834 ng·h/mL in data set [12]. Moreover, the dose excreted at 24 h in data set [10] turned out to be 68.1%. Also, the peak level in data set [11] (Cmax) was 568 ng/mL.
On to `CCC(CC)N(CCN(C)C(=O)CCC(=O)NCCOCCOCCOCCO)Cc1cccc(C(=O)Nc2[nH]c3ccccc3c2C(=O)Nc2ccc(CCCc3ccc(C(=O)O)cc3)cc2)c1`, for which, in the data set with Rattus norvegicus, the inhibition result was “Active”. Moreover, the solubility at 24 h in [4] was more than 479 µg/mL; in [5], more than 482 µg/mL. This compound displayed a Ct in [6] of 34 µg/mL. In data set [7], this compound gave a bioavailability of 1.1%. Also, the IC50 was found to be 98 nM in data set [8] and 166 nM in [1]. The results for the AUC(0-t) in [13] and in data set [9] were 170 ng·h/mL and 15.4 ng·h/mL, respectively. Further, in [10], the dose excreted at 24 h is 58.8%. This compound also registered a Cmax in data set [11] of 15.5 ng/mL.

These data come from ChEMBL document CHEMBL5120876, “Design, synthesis and biological evaluation of novel indole derivatives as gut-selective NaPi2b inhibitors” (Bioorg Med Chem, 2022).
